Data published in patent US11014871B2, ““Multi-target” compounds with inhibitory activity towards histone deacetylases and tubulin polymerisation, for use in the treatment of cancer” (UNIVERSITE PARIS-SUD, priority 2016, dated 2021).
Entries after “also recorded” stand apart in the source; their conditions may differ. Where two headings read alike, the source gives them in different places.

Key:
[1] = system: Tubulin; test: Inhibition of tubulin polymerisation (ITP); type: biochemical, sheep; settings: tubulin 10 μM; inhibition of maximum assembly rate
Description: To verify whether the antiproliferative activities of novel molecules 2 and 3 correlate with their anti-tubulin effects, their ability to inhibit tubulin polymerisation into microtubules was measured in vitro. Tubulin was purified from sheep brains according to the Shelanski method by two assembly-disassembly cycles. The stock solution (15-20 mg/mL), stored at −196° C., is thawed and diluted in the assembly buffer (0.1 M MES, 0.5 mM MgCl2, 1 mM EGTA, and 1 mM GTP, pH 6.6) to a final concentration of 10 μM. Tubulin assembly was monitored by fluorescence on 96-well plates according to the method of Barron et al. The tubulin solution (10 μM, 100 μL per well) was supplemented with inhibitor (DMSO, 1 μL) and incubated for 45 min at room temperature. GTP (1 mM final) was then added, the solution was rapidly mixed and the fluorescence (λex=350 nm, λem=440 nm) was measured on a Wallac Victor fluorimeter (Perkin Elmer). Fifty-percent inhibition of the maximum assembly rate (IC50) was determined in duplicate or triplicate on 10 concentrations flanking the IC50. For comparison, deoxypodophyllotoxin and isoCA-4 were used as positive controls.

[2] = system: HCT116; test: Cytotoxic activity on HCT116; type: cell-based; settings: for IC50: Homo sapiens, read-out: HCT116 IC50; for antiproliferative / cytotoxic activity in words: comment on Table 1
Description: (§1) The cytotoxic activity of the prepared compounds was evaluated on various human cancer cell lines. The selected line was incubated at 37° C. in the presence of one of the novel compounds, added to the culture medium at various concentrations.

[3] = system: many human cancer lines; settings: many human cancer lines and resistant lines; read-out: cytotoxic IC50; cited from earlier work
[4] = system: MCF7; test: Cytotoxic activity on MCF7; type: cell-based; settings: Homo sapiens, 72 hours of incubation, read-out: Cytotoxicity IC50 MCF7
Description: as §1

[5] = system: U2OS; test: Cytotoxic activity on U2OS; type: cell-based; settings: Homo sapiens, 72 hours of incubation, read-out: Cytotoxicity IC50 U2OS
Description: as §1

[6] = system: MiaPaCa 2; test: Cytotoxic activity on MiaPaCa 2; type: cell-based; settings: Homo sapiens, MIA PaCa-2; 72 hours of incubation; read-out: Cytotoxicity IC50 MiaPaCa 2
Description: as §1

[7] = target: T1, HDAC8 (Homo sapiens, UniProt Q9BY41); test: Inhibition of HDAC8 activity; type: biochemical
T1 sequence (Q9BY41 1-377): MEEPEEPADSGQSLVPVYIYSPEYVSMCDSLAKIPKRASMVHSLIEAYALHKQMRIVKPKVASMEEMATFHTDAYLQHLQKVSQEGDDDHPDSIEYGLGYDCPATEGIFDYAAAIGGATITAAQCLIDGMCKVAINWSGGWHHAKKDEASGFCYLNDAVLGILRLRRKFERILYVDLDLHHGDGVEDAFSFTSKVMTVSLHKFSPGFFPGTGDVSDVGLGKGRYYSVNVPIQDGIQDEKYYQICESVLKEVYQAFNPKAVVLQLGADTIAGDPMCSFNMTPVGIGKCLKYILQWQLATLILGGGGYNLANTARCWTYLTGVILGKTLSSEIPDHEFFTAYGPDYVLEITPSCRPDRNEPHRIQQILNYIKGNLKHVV

[8] = system: HDACs 1 to 11; test: Inhibition of HDACs 1 to 11 (panel); type: biochemical; settings: percentage inhibition at test concentration of 1.0^−5 M
[9] = system: K562; test: Cytotoxic activity on K562; type: cell-based; settings: Homo sapiens, 72 hours of incubation, read-out: Cytotoxicity IC50 K562
Description: as §1

[10] = system: K562R; test: Cytotoxic activity on K562R; type: cell-based; settings: Homo sapiens, K-562R; 72 hours of incubation; imatinib-resistant
Description: as §1

[11] = system: PC3; test: Cytotoxic activity on PC3; type: cell-based; settings: Homo sapiens, PC-3; 72 hours of incubation; read-out: Cytotoxicity IC50 PC3
Description: as §1

[12] = system: U87; test: Cytotoxic activity on U87; type: cell-based; settings: Homo sapiens, U-87 MG; 72 hours of incubation; read-out: Cytotoxicity IC50 U87
Description: as §1

[13] = system: BxPC3; test: Cytotoxic activity on BxPC3; type: cell-based; settings: Homo sapiens, BXPC-3; 72 hours of incubation; read-out: Cytotoxicity IC50 BxPC3
Description: as §1

[14] = system: SOJ6; test: Cytotoxic activity on SOJ6; type: cell-based; settings: Homo sapiens; 72 hours of incubation; read-out: Cytotoxicity IC50 SOJ6
Description: as §1

[15] = system: other human tumour lines; test: Cytotoxicity to other human tumour lines (panel); type: cell-based; settings: A549, K562, MCF7, PC3, U87, U2OS, SOJ6, BxPC-3, MiaPaCa-2, read-out: IC50 values across other human tumour lines
Description: as §1

[16] = system: A549; test: Cytotoxic activity on A549; type: cell-based; settings: Homo sapiens, 72 hours of incubation, read-out: Cytotoxicity IC50 A549
Description: as §1

[17] = target: T2, HDAC11 (Homo sapiens, UniProt Q96DB2); test: Inhibition of HDAC11 activity; type: biochemical; settings: FIG. 5
T2 sequence (Q96DB2 1-347): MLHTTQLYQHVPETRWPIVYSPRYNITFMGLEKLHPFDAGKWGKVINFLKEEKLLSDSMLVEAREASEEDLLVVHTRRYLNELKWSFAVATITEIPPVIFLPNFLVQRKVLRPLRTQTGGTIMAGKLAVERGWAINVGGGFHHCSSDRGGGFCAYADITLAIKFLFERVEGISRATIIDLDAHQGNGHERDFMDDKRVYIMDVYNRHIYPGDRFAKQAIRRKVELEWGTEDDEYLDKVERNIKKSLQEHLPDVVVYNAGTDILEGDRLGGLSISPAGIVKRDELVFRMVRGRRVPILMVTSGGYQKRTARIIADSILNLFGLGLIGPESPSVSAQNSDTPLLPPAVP

[18] = HCT-116, 72 hours of incubation

C=C(c1cc(OC)c(OC)c(OC)c1)c1ccc(OC)c(C(=O)NO)c1 [Compound 1, N-Hydroxy-2-methoxy-5-(1-(3,4,5-trimethoxyphenyl)vinyl)benzamide]
IC50 [1]: 20 ± 1.2 µM
IC50 [2, 18]: 233 ± 22 nM

C=C(c1ccc(OC)c(O)c1)c1cc(OC)c(OC)c(OC)c1 [isoCA-4, Isocombretastatin A-4, reference compound]
IC50 [1]: 1.8 ± 0.4 µM
IC50 ([2]; HCT-116, 72 h): 2 nM

COc1ccc(/C=C\c2cc(OC)c(OC)c(OC)c2)cc1O [CA-4, combretastatin A-4]
IC50 [3]: 1 to 2 nM

C=C(c1ccc(OC)c(/C=C/C(=O)NO)c1)c1cc(OC)c(OC)c(OC)c1 [Compound 2, (E)-N-Hydroxy-3-(2-methoxy-5-(1-(3,4,5-trimethoxyphenyl)vinyl)phenyl)acrylamide]
IC50 [4]: 2 nM
IC50 [1]: 1.6 µM
IC50 [5]: 1.9 nM
IC50 [6]: 5.1 nM
IC50 [7]: 340 nM
selective inhibitory activity among HDACs 1 to 11 [8]: selective inhibitory activity against HDAC8; also recorded: selective activity for HDAC8 and HDAC11
IC50 [9]: 1.6 nM
IC50 [10]: 1.6 nM
IC50 [11]: 2.4 nM
IC50 [12]: 1.6 nM
IC50 [13]: 2.9 nM
IC50 [2, 18]: 2.5 nM
IC50 [14]: 6.8 nM
IC50 [15]: 1.6 to 6.8 nM
IC50 [16]: 1.7 nM

C=C(c1cc(OC)c(OC)c(OC)c1)c1ccc2c(c1)cc(/C=C/C(=O)NO)n2C [Compound 12, (E)-N-Hydroxy-3-(1-methyl-5-(1-(3,4,5-trimethoxyphenyl)vinyl)-1H-indol-2-yl)acrylamide]
IC50 [1]: 5.4 ± 1.2 µM
selective inhibitory activity among HDACs 1 to 11 [8]: selective inhibitory activity against HDAC6, HDAC8 and HDAC11; also recorded: selective activity for HDAC6, HDAC8 and HDAC11
IC50 [2, 18]: 12 ± 2.5 nM
antiproliferative / cytotoxic activity in words [2]: excellent antiproliferative activity

C=C(c1ccc(OC)c(C#CCCC(=O)NO)c1)c1cc(OC)c(OC)c(OC)c1 [Compound 3, N-Hydroxy-5-(2-methoxy-5-(1-(3,4,5-trimethoxyphenyl)vinyl)phenyl)pent-4-ynamide]
IC50 [1]: 1.7 µM
selective inhibitory activity among HDACs 1 to 11 [8]: selective inhibitory activity against HDAC8 and HDAC11; also recorded: selective activity for HDAC8 and HDAC11
IC50 [10]: 33 nM
IC50 [2, 18]: 35 nM
antiproliferative / cytotoxic activity in words [2]: cytotoxic at nanomolar concentrations
IC50 [17]: 11 µM

C=C(c1cc(OC)c(OC)c(OC)c1)c1ccc(OC)c(/C=C/C(=O)NO)n1 [Compound 17, (E)-N-Hydroxy-3-(3-methoxy-6-(1-(3,4,5-trimethoxyphenyl)vinyl)pyridin-2-yl)acrylamide]
IC50 [1]: 7.5 ± 1.5 µM
IC50 [2, 18]: 37.2 ± 0.6 nM
antiproliferative / cytotoxic activity in words [2]: excellent antiproliferative activity

C=C(c1cc(OC)c(OC)c(OC)c1)c1ccc(OC)cc1/C=C/C(=O)NO [Compound 8, (E)-N-Hydroxy-3-(5-methoxy-2-(1-(3,4,5-trimethoxyphenyl)vinyl)phenyl)acrylamide]
IC50 [1]: 2.1 ± 0.4 µM
selective inhibitory activity among HDACs 1 to 11 [8]: selective inhibitory activity against HDAC6, HDAC8 and HDAC11; also recorded: selective activity for HDAC6, HDAC8 and HDAC11
IC50 [2, 18]: 2 ± 0.1 nM

C=C(c1cc(OC)c(OC)c(OC)c1)c1ccc2c(c1)c(C(=O)NO)cn2C [Compound 25, N-Hydroxy-1-methyl-5-(1-(3,4,5-trimethoxyphenyl)vinyl)-1H-indole-3-carboxamide]
IC50 [1]: 7.3 ± 3.3 µM
IC50 [2, 18]: 30 ± 1.5 nM
antiproliferative / cytotoxic activity in words [2]: excellent antiproliferative activity

C=C(c1cc(OC)c(OC)c(OC)c1)c1ccc2c(ccn2CCC(=O)NO)c1 [Compound 44, N-Hydroxy-3-(5-(1-(3,4,5-trimethoxyphenyl)vinyl)-1H-indol-1-yl)propanamide]
IC50 [1]: 22 ± 2 µM
IC50 [2, 18]: 393 ± 4.1 nM

C=C(c1cc(OC)c(OC)c(OC)c1)c1ccc2c(c1)cc(C(=O)NO)n2C [Compound 43, N-Hydroxy-1-methyl-5-(1-(3,4,5-trimethoxyphenyl)vinyl)-1H-indole-2-carboxamide]
IC50 [1]: 81 ± 15 µM
IC50 [2, 18]: 36 ± 4 nM
antiproliferative / cytotoxic activity in words [2]: excellent antiproliferative activity

C=C(c1ccc(OC)c(C#CCCCC(=O)NO)c1)c1cc(OC)c(OC)c(OC)c1 [Compound 4, N-Hydroxy-6-(2-methoxy-5-(1-(3,4,5-trimethoxyphenyl)vinyl)phenyl)hex-5-ynamide]
IC50 [1]: 18 ± 1.2 µM
IC50 [2, 18]: 372 ± 5 nM

C=C(c1cc(OC)c(OC)c(OC)c1)c1ccc2c(c1)c(/C=C/C(=O)NO)cn2C [Compound 11, (E)-N-Hydroxy-3-(1-methyl-5-(1-(3,4,5-trimethoxyphenyl)vinyl)-1H-indol-3-yl)acrylamide]
IC50 [1]: 3.7 ± 0.5 µM
selective inhibitory activity among HDACs 1 to 11 [8]: selective inhibitory activity against HDAC6 and HDAC8; also recorded: selective activity for HDAC6 and HDAC8
IC50 [2, 18]: 2.2 ± 0.26 nM
antiproliferative / cytotoxic activity in words [2]: excellent antiproliferative activity
